Measured values as given in patent US6576455B1, “Structure-based designed herbicide resistant products” (priority 1995, dated 2003).

Assays:
tobacco plants = assay: Germination tests of tobacco seeds in the presence of CL 299,263 (imazamox); type: in vivo, Nicotiana tabacum; conditions: 2.5 μM CL 299,263
Experimental: Tobacco plants transformed with rationally designed AHAS genes as described in Example 8 above were also tested for cross-resistance to another herbicide, CL 299,263 (also known as imazamox).

tobacco shoots = assay: Root formation of tobacco shoots on medium containing 0.25 μM imazethapyr; type: in vivo, Nicotiana tabacum cv. Wisconsin 38; conditions: 0.25 μM imazethapyr in medium
Experimental: FIG. 13 is a photograph showing the root development of tobacco plants transformed with the Arabidopsis AHAS gene containing either the Met124Ile or Arg199Glu mutation and a non-transformed control. Plants were grown for 18 days after transfer into medium containing 0.25 μM imazethapyr.
Leaf disc transformation of Nicotiana tabacum cv. Wisconsin 38 was performed as described by Horsch et al. (Science, 227: 1229-1231, 1985) with slight modifications. Leaf discs were cut from plants grown under sterile conditions and co-cultivated upsidedown in Murashige Skoog media (Sigma Chemical Co., St. Louis, Mo.) for 2-3 days at 25° C. in darkness with Agrobacterium tumefaciens strains containing plasmids pJK002, pJK003, or pJK004. The discs were blotted dry and transferred to regeneration Murashige Skoog medium with B5 vitamins containing 1 mg/L benzyladenine and 0.1 mg/l 1-Napthyl Acetic Acid, 100 mg/L kanamycin, and 500 mg/L cefotaxime (all obtained from Sigma).
Initially, transformants were selected by kanamycin resistance conferred by the nptII gene present in the transformation vector. Shoots derived from the leaf discs were excised and placed on fresh Murashige Skoog hormone free media containing cefotaxime and kanamycin.
Kanamycin-resistant tobacco shoots were transferred to medium containing a 0.25 μM imazethapyr. […]

| Compound | effect on wild-type tobacco plants (tobacco plants) | root formation of non-transformed tobacco shoots (endogenous wild-type AHAS) (tobacco shoots) |
| --- | --- | --- |
| COCc1cnc(C2=NC(C)(C(C)C)C(=O)N2)c(C(=O)O)c1 (centres unmarked) [CL 299,263, imazamox] | severe stunting and bleaching | – |
| CCc1cnc(C2=NC(C)(C(C)C)C(=O)N2)c(C(=O)O)c1 (centres unmarked) [imazethapyr] | – | not able to initiate root formation |
